This is an account of results in ChEMBL document CHEMBL4814029, “Design, synthesis, and structure-activity relationship of programmed cell death-1/programmed cell death-ligand 1 interaction inhibitors bearing a benzo[d]isothiazole scaffold” (Eur J Med Chem, 2021).

For data set [1], the target named is Programmed cell death protein 1/Programmed cell death 1 ligand 1 (Homo sapiens, UniProt Q15116+Q9NZQ7). As to the kind of experiment: Inhibition of Tag2-PD-1/Tag1-PDL-1 (unknown origin) interaction incubated for 15 mins by TR-FRET assay. The data set is classed as protein-complex assay.
Sequence of Programmed cell death protein 1/Programmed cell death 1 ligand 1 (Q15116 whole entry): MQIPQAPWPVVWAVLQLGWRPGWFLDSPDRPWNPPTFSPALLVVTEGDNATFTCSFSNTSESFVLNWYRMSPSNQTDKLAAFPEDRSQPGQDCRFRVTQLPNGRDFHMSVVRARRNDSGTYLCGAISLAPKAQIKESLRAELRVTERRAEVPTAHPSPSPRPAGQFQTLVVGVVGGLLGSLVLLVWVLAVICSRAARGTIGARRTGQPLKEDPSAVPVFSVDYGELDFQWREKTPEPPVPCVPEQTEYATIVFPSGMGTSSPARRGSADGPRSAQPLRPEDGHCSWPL
Sequence of Programmed cell death protein 1/Programmed cell death 1 ligand 1 (Q9NZQ7 whole entry): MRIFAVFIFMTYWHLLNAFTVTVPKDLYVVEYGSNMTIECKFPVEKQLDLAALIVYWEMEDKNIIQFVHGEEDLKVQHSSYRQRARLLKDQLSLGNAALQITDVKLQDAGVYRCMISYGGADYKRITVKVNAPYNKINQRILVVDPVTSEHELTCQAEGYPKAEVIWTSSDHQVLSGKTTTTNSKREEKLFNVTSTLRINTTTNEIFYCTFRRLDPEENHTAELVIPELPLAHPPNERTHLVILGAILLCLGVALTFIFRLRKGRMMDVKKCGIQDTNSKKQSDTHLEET
Data set [2] can be described thus: Growth inhibition of CHO cells expressing PDL-1/TCRa measured after 24 hrs co-culturing with human Jurkat cells expressing PD-1/NFAT-Luc in presence of compound by Cell Titer-Glo luminescent cell viability assay. The data set is classed as cell-based, Cricetulus griseus. The note with it: chinese hamster. Background: ATP-based viability assays read luminescence as a measure of living cells.

Data set [3] in a line: Inhibition of PD-1/PDL-1-mediated immune checkpoint using CHO cells expressing PDL-1/TCRa and human Jurkat cells expressing PD-1/NFAT-Luc assessed as Jurkat T lymphocyte activation measured after 6 hrs by luciferase reporter gene based luminescence assay. A general note: A reporter such as luciferase makes a cellular process visible.
Data set [4] in a line: Growth inhibition of CHO cells expressing PDL-1/TCRa incubated for 24 hrs by Cell Titer-Glo luminescent cell viability assay. The data set is classed as cell-based, Cricetulus griseus. As to conditions: chinese hamster.
Data set [5] in a line: Inhibition of PD-1/PDL-1-mediated immune checkpoint using CHO cells expressing PDL-1/TCRa and human Jurkat cells expressing PD-1/NFAT-Luc assessed as Jurkat T lymphocyte activation by measuring maximal luminescence value measured after 6 hrs by luciferase reporter gene based luminescence assay.
The target in data set [6] is Programmed cell death 1 ligand 1 (Homo sapiens, UniProt Q9NZQ7). The experiment in a line: Inhibition of PDL1 (unknown origin).
Sequence of Programmed cell death 1 ligand 1 (Q9NZQ7 whole entry): as above

One may read the IC50 as the concentration that inhibits the measured activity by half. The low end stands for greater potency, the high end for weaker potency. With `O=C(O)C[C@H](NCc1ccc2c(Nc3cccc(-c4ccc5c(c4)OCCO5)c3Cl)nsc2c1)C(=O)O`, in data set [1], half-maximal inhibition (IC50) required 474 nM.

In data set [1], `O=C(O)[C@H](CO)NCc1ccc2c(Nc3cccc(-c4ccc5nccnc5c4)c3Cl)nsc2c1` displayed an IC50 greater than 1000 nM. On to `CC1(O)CCN(Cc2ccc3snc(Nc4cccc(-c5ccc6c(c5)OCCO6)c4Cl)c3c2)C1` (racemic), for which the 50% inhibitory concentration (IC50) in data set [1] is 177 nM. `OC1CCCN(Cc2ccc3snc(Nc4cccc(-c5ccc6c(c5)OCCO6)c4Cl)c3c2)C1` (racemic) yielded an IC50 in data set [1] of 327 nM. Compared with the last compound, the IC50 is about 1.8-fold higher. The same measure, in the same setting: then `O=C(O)[C@H](CO)NCc1ccc2c(Nc3cccc(-c4cccc5c4CCN5CCCN4CCC(O)C4)c3Cl)nsc2c1` (stereo partly drawn), with 231 nM.

`O=C(O)[C@H](CO)NCc1ccc2c(Nc3cccc(-c4ccc5c(c4)OCO5)c3Cl)nsc2c1` showed an IC50 in data set [1] of 34.7 nM. By GI50 is commonly meant the concentration giving 50% growth inhibition. As a reminder, the EC50 is the concentration needed to bring the measured effect to its halfway point. Compound `O=C(O)[C@H](CO)NCc1ccc2c(Nc3cccc(-c4ccc5c(c4)OCCO5)c3Cl)nsc2c1` displayed a 50% inhibitory concentration (IC50) in data set [1] of 8.5 nM. The GI50 at 24 h in data set [2] is greater than 30000 nM. Besides, in data set [3], the 50% effective concentration (EC50) turned out to be 5600 nM and the inhibition result was “Dose-Dependent Effect”. Moreover, the GI50 at 24 h in data set [4] was greater than 30000 nM. Further, the RLU in data set [5] came out at 3260.

`O=C(O)[C@H](CO)NCc1ccc2c(Nc3cccc(-c4ccc5c(c4)OCCO5)c3)nsc2c1` registered a 50% inhibitory concentration (IC50) in data set [1] greater than 1000 nM. Still for that read-out and setting: then `O=C(O)[C@H](CO)NCc1ccc2c(Nc3cccc(-c4cccc(O)c4)c3Cl)nsc2c1`, with 143 nM.

As for `O=C(O)C1CN(Cc2ccc3c(Nc4cccc(-c5ccc6c(c5)OCCO6)c4Cl)nsc3c2)C1`, the IC50 in data set [1] is 72.6 nM. Same read-out and setting: as for `OC1CCN(Cc2ccc3snc(Nc4cccc(-c5ccc6c(c5)OCCO6)c4Cl)c3c2)CC1`, the figure is 854 nM; as for `OC1CCN(Cc2ccc3c(Nc4cccc(-c5ccc6c(c5)OCCO6)c4Cl)nsc3c2)C1` (racemic), 58.4 nM. `O=C(O)C1CCCN(Cc2ccc3c(Nc4cccc(-c5ccc6c(c5)OCCO6)c4Cl)nsc3c2)C1` (racemic) gave an IC50 in data set [1] of 517 nM.

As to `OC1CCN(Cc2ccc3snc(Nc4cccc(-c5ccc6c(c5)OCCO6)c4Cl)c3c2)C1` (racemic), the concentration for half-maximal inhibition (IC50) in data set [1] is 251 nM. In the case of `C[C@H](NCc1ccc2c(Nc3cccc(-c4ccc5c(c4)OCCO5)c3Cl)nsc2c1)C(=O)O`, half-maximal inhibition in data set [1] (IC50) required 44.4 nM. With `O=C(O)CCCCOc1cccc(-c2cccc(Nc3nsc4cc(CN[C@@H](CO)C(=O)O)ccc34)c2Cl)c1`, the concentration for half-maximal inhibition (IC50) in data set [1] is greater than 1000 nM.

In data set [1], `O=C(O)[C@H](CO)NCc1ccc2c(Nc3cccc(-c4ccc5c(c4)OCCO5)c3F)nsc2c1` yielded an IC50 of 486 nM. For `Cc1cc(C(=O)Nc2cccc(-c3ccc4c(c3)OCCO4)c2C)ncc1CN1CCCC[C@H]1C(=O)O`, the 50% inhibitory concentration (IC50) in data set [6] is less than 10 nM.

In the case of `CC(C)[C@H](NCc1ccc2c(Nc3cccc(-c4ccc5c(c4)OCCO5)c3Cl)nsc2c1)C(=O)O`, in data set [1], the midpoint of inhibition, the IC50, lay at 73.7 nM. The same measure, in the same setting: as for `CN(CC(=O)O)Cc1ccc2c(Nc3cccc(-c4ccc5c(c4)OCCO5)c3Cl)nsc2c1`, the figure is 147 nM; as for `COc1c(Nc2nsc3cc(CN[C@@H](CO)C(=O)O)ccc23)cccc1-c1ccc2c(c1)OCCO2`, greater than 1000 nM; as for `O=C(O)CCCCOc1ccc(-c2cccc(Nc3nsc4cc(CN[C@@H](CO)C(=O)O)ccc34)c2Cl)cc1`, greater than 1000 nM. Still for that read-out and setting: then `O[C@@H]1CCN(Cc2ccc3c(Nc4cccc(-c5ccc6c(c5)OCCO6)c4Cl)nsc3c2)C1`, with 106 nM; and `O=C(O)C1CCN(Cc2ccc3c(Nc4cccc(-c5ccc6c(c5)OCCO6)c4Cl)nsc3c2)C1` (racemic), with 73.3 nM. The same measure, in the same setting: then `COc1ccc(-c2cccc(Nc3nsc4cc(CN[C@@H](CO)C(=O)O)ccc34)c2Cl)cc1OC`, with greater than 1000 nM; and `O=C(O)C1CCCN1Cc1ccc2c(Nc3cccc(-c4ccc5c(c4)OCCO5)c3Cl)nsc2c1` (racemic), with 110 nM. `O=C(O)[C@@H]1C[C@@H](O)CN1Cc1ccc2c(Nc3cccc(-c4ccc5c(c4)OCCO5)c3Cl)nsc2c1`: in data set [1], the IC50 is 17.7 nM. On the same count and under the same terms, as for `O=C(O)CNCc1ccc2c(Nc3cccc(-c4ccc5c(c4)OCCO5)c3Cl)nsc2c1`, the figure is 35.6 nM. The same measure, in the same setting: as for `O=C(O)[C@H](CO)NCc1ccc2c(Nc3cccc(-c4ccccc4)c3Cl)nsc2c1`, the figure is 40.3 nM. Still for that read-out and setting: then `OCC(CO)NCc1ccc2c(Nc3cccc(-c4ccc5c(c4)OCCO5)c3Cl)nsc2c1`, with 58.3 nM; and `OC1CCCN(Cc2ccc3c(Nc4cccc(-c5ccc6c(c5)OCCO6)c4Cl)nsc3c2)C1` (racemic), with 164 nM; and `Cc1c(Nc2nsc3cc(CN[C@@H](CO)C(=O)O)ccc23)cccc1-c1ccc2c(c1)OCCO2`, with 78 nM. In turn, `O=C(O)[C@@H](CO)NCc1ccc2c(Nc3cccc(-c4ccc5c(c4)OCCO5)c3Cl)nsc2c1` showed a half-maximal inhibitory concentration (IC50) in data set [1] of 10.8 nM.

In data set [1], `CC1(O)CCN(Cc2ccc3c(Nc4cccc(-c5ccc6c(c5)OCCO6)c4Cl)nsc3c2)C1` (racemic) displayed an IC50 of 98.7 nM. The same measure, in the same setting: as for `COC[C@H](NCc1ccc2c(Nc3cccc(-c4ccc5c(c4)OCCO5)c3Cl)nsc2c1)C(=O)O`, the figure is 79.1 nM.

For `N#Cc1c(NC(=O)c2nc3c(s2)CNCC3)cccc1-c1ccc2c(c1)OCCO2`, in data set [6], the IC50 is less than 100 nM. Take `OC1CCN(Cc2ccc3c(Nc4cccc(-c5ccc6c(c5)OCCO6)c4Cl)nsc3c2)CC1`: the IC50 in data set [1] came out at 158 nM. `O[C@H]1CCN(Cc2ccc3c(Nc4cccc(-c5ccc6c(c5)OCCO6)c4Cl)nsc3c2)C1` came in with an IC50 in data set [1] of 109 nM. The compound `N#Cc1cncc(COc2cc(OC3CCc4c(-c5ccccc5)cccc43)c(Cl)cc2CN[C@@H](CO)C(=O)O)c1` (stereo partly drawn) registered a half-inhibitory concentration (IC50) in data set [6] of less than 100 nM. Regarding `C[C@@H](O)[C@H](NCc1cc(Cl)c(OCc2cccc(-c3ccccc3)c2Br)cc1OCC1CC1)C(=O)O`, the IC50 in data set [6] stood at 10.2 nM. As to `Cc1c(COc2cc(OCc3cccc(C#N)c3)c(CN3C[C@H](O)C[C@@H]3C(=O)O)cc2Cl)cccc1-c1ccc2c(c1)OCCO2`, in data set [2], the 50% growth inhibitory concentration (GI50) at 24 h was greater than 30000 nM. In data set [3], the EC50 worked out at 3100 nM and the inhibition result is “Dose-Dependent Effect”. The compound also gave a 50% growth inhibitory concentration (GI50) at 24 h in data set [4] greater than 30000 nM. Besides, in data set [5], the RLU was 2240. `O=C(O)C1CCN(Cc2ccc3c(Nc4cccc(-c5ccc6c(c5)OCCO6)c4Cl)nsc3c2)CC1`: the IC50 in data set [1] came out at 60.1 nM. In other words, the double-digit nanomolar range. Same read-out and setting: as for `C[C@@H](NCc1ccc2c(Nc3cccc(-c4ccc5c(c4)OCCO5)c3Cl)nsc2c1)C(=O)O`, the figure is 43.4 nM; as for `O=C(O)C1CCN1Cc1ccc2c(Nc3cccc(-c4ccc5c(c4)OCCO5)c3Cl)nsc2c1` (racemic), 131 nM.
